In series [1] the test system is patients with non-cirrhotic, non-alcoholic steatohepatitis. Put plainly: Subanalysis of clinical trial: concomitant statin use and LDL cholesterol. Particulars: patients on statins at baseline; up to Week 72. The class given is in vivo, humans. As for the experimental part:
A subanalysis of the data obtained in Example 9 was performed to assess the effect of statins on low density lipoprotein cholesterol (LDL-C) levels. The aims of these secondary analyses were to determine the effect of OCA versus placebo in the subgroup of patients with more severe NASH and to assess the effects of concomitant statin use on serum LDL cholesterol.
The following calculations were performed for OCA treated subjects in Groups A, B, and C. • Mean and median characteristics listed below will be evaluated at baseline and at Week 72. • Laboratory values: LDL-C, high density lipoprotein cholesterol (HDL-C), alanine and aspartate aminotransferase, gamma glutamyl transferase • Age • Gender: percentage male, percentage female • Percentage diabetic • Histology: steatosis, ballooning, inflammation, fibrosis • Mean and median percentage change at Week 72 from baseline of the above characteristics will be evaluated. Results

The subject of series [2] is fibrosis induced by common bile duct ligation in mice. Put plainly: Bile duct ligation (BDL) model, Sirius-red staining of liver sections. The class given is in vivo, C57BL/6 mice. Particulars: mean ± SD, OCA 5 mg/kg and/or atorvastatin 10 mg/kg orally once daily day 0 to day 6. As for the experimental part: This experiment was performed to evaluate the effects of OCA and atorvastatin alone, and in combination, on fibrosis induced by common bile duct ligation in mice.
Male C57BL/6 mice (6 weeks of age) were obtained from Japan SLC. The animals were maintained in a specific pathogen free facility under controlled conditions of temperature (23±2° C.), humidity (45±10%), lighting (12-hour artificial light and dark cycles; light from 8:00 to 20:00), and air exchange (air exchange rate: more than 40 times/hour). A high pressure (20±4 Pa) was maintained in the experimental room to prevent contamination of the facility. The animals were housed in KN-600 (Natsume Seisakusho, Japan) with a maximum of 6 mice per cage. […]
Viability, clinical signs and behavior were monitored daily. Body weight was recorded daily during the treatment period. Food consumption was measured twice weekly per cage during the treatment period. […]
To visualize collagen deposition, Bouin's-fixed left lateral liver sections were stained using picro-Sirius red solution (Waldeck, Germany). For quantitative analysis of the fibrosis area, bright field images of Sirius red-stained sections were captured around the central vein using a digital camera (DFC295; Leica, Germany) at 100-fold magnification, and the positive areas in 5 fields/section were measured using ImageJ software (National Institute of Health, USA). […]

The subject of series [3] is rat aortic smooth muscle cell. Particulars: Li 2007; cited from earlier work.
In series [4] the test system is intestinal tissue of two animal models of inflammatory bowel disease (DSS and trinitrobenzene sulfonic acid). Particulars: DSS and trinitrobenzene sulfonic acid models (Gadaleta 2011); cited from earlier work.

Take `CC[C@H]1[C@@H](O)[C@@H]2[C@H](CC[C@]3(C)[C@@H]([C@H](C)CCC(=O)O)CC[C@@H]23)[C@@]2(C)CC[C@@H](O)C[C@@H]12` [OCA, 3α,7α-dihydroxy-6α-ethyl-5β-cholan-24-oic acid]: the “LDL cholesterol during OCA treatment” value in series [1] is on record as “increased”. Further, the “Sirius red-positive area (%)” value in series [2] amounted to 2.06 ± 0.37%. In series [3], the “pharmacologically-induced rat aortic smooth muscle cell migration” value is on record as “abolished” and the “production of iNOS or COX-2 induced by IL-1β” value is “inhibited”. The “inflammatory infiltrates in intestinal tissue” value in series [4] is recorded as “inhibition of inflammatory infiltrates”.

The values above are taken from patent US12337003B2, “Pharmaceutical compositions for combination therapy” (Intercept Pharmaceuticals, Inc., priority 2015, dated 2025).
